Numbers after ± are expanded uncertainties.
Assay: xn = mol fraction of the nth substance listed
Details: 101 kPa, Liquid; for viscosity: Falling or rolling sphere viscometry; for mass density: Vibrating tube method

CCCCO [butan-1-ol] + CCO
Details	mass density, 293.15 K [kg/m3]	mass density, 298.15 K [kg/m3]	mass density, 303.15 K [kg/m3]	mass density, 308.15 K [kg/m3]	viscosity, 293.15 K [mPa·s]	viscosity, 298.15 K [mPa·s]	viscosity, 303.15 K [mPa·s]	viscosity, 308.15 K [mPa·s]
x2 = 0	809.02 ± 0.12	805.24 ± 0.12	801.42 ± 0.12	797.57 ± 0.12	3.066 ± 0.065	2.534 ± 0.054	2.234 ± 0.047	1.978 ± 0.042
x2 = 0.1	807.8 ± 0.12	803.98 ± 0.12	800.13 ± 0.12	796.25 ± 0.12	2.693 ± 0.057	2.376 ± 0.051	2.103 ± 0.045	1.868 ± 0.04
x2 = 0.2	806.38 ± 0.12	802.53 ± 0.12	798.65 ± 0.12	794.74 ± 0.12	2.494 ± 0.053	2.214 ± 0.047	1.967 ± 0.042	1.754 ± 0.037
x2 = 0.3	804.85 ± 0.12	800.97 ± 0.12	797.06 ± 0.12	793.12 ± 0.12	2.242 ± 0.048	1.993 ± 0.042	1.777 ± 0.038	1.591 ± 0.034
x2 = 0.4	803.63 ± 0.12	799.71 ± 0.12	795.75 ± 0.12	791.76 ± 0.12	2.048 ± 0.044	1.826 ± 0.039	1.633 ± 0.035	1.465 ± 0.031
x2 = 0.501	801.61 ± 0.12	797.65 ± 0.12	793.66 ± 0.12	789.63 ± 0.12	1.897 ± 0.04	1.705 ± 0.036	1.533 ± 0.033	1.381 ± 0.029
x2 = 0.602	799.54 ± 0.12	795.54 ± 0.12	791.5 ± 0.12	787.42 ± 0.12	1.725 ± 0.037	1.55 ± 0.033	1.397 ± 0.03	1.262 ± 0.027
x2 = 0.701	797.38 ± 0.12	793.33 ± 0.12	789.23 ± 0.12	785.1 ± 0.13	1.574 ± 0.033	1.414 ± 0.03	1.279 ± 0.027	1.159 ± 0.025
x2 = 0.801	795.11 ± 0.12	790.98 ± 0.12	786.82 ± 0.12	782.64 ± 0.13	1.445 ± 0.031	1.302 ± 0.028	1.184 ± 0.025	1.076 ± 0.023
x2 = 0.9	792.58 ± 0.12	788.39 ± 0.12	784.17 ± 0.13	779.92 ± 0.13	1.301 ± 0.028	1.18 ± 0.025	1.072 ± 0.023	0.977 ± 0.021

From the NIST ThermoML archive (doi:10.1021/je300632p)
